Legend:
RVFV-MP12 = assay type: cell-based, Rift Valley fever virus
EBOV-eGFP = assay type: cell-based, Zaire ebolavirus

| Compound | inhibition of RVFV-MP12 (plaque reduction), in words (RVFV-MP12) | further results |
| --- | --- | --- |
| LGASSSRFTNWGSVSLSLD [RVFV-3] | Only RVFV-5 demonstrated any inhibition | – |
| YWTGSISPKCLSSRRCHLV [RVFV-1] | Only RVFV-5 demonstrated any inhibition | – |
| SGSWNFFDWFSGLMSWFGGPL [RVFV-10] | – | inhibition of EBOV (GFP signal) (EBOV-eGFP): strongly inhibit |
| FVGAAVSCDAAFLNLTGCY [RVFV-4] | Only RVFV-5 demonstrated any inhibition | – |
| WGCGCFNVNPSCLFVHTYL [RVFV-2] | Only RVFV-5 demonstrated any inhibition | – |
| CSCC[C@H](NC(=O)[C@H](CC(C)C)NC(=O)CNC(=O)[C@H](CO)NC(=O)[C@H](Cc1ccccc1)NC(=O)[C@H](Cc1c[nH]c2ccccc12)NC(=O)[C@H](CC(=O)O)NC(=O)[C@H](Cc1ccccc1)NC(=O)[C@H](Cc1ccccc1)NC(=O)[C@H](CC(N)=O)NC(=O)[C@@H](N)Cc1c[nH]c2ccccc12)C(=O)N[C@@H](CO)C(=O)N[C@@H](Cc1c[nH]c2ccccc12)C(=O)N[C@@H](Cc1ccccc1)C(=O)NCC(=O)NCC(=O)N1CCC[C@H]1C(=O)N[C@@H](CC(C)C)C(=O)N[C@@H](CCCCN)C(=O)O [RVFV-6, WNFFDWFSGLMSWFGGPLK] | – | impact on cell proliferation (MTT assay) (Vero E6 cells): little negative impact on cell proliferation |
